Values quoted from earlier work in patent USRE31980E, “Olefinic derivatives of amino acids” (Merrell Toraude et Compagnie, priority 1983, dated 1985).

Tests used:
[1] = test system: γ-aminobutyric acid transaminase
[2] = test system: brain level of γ-aminobutyric acid; details: in vivo

Compound | inhibition of γ-aminobutyric acid transaminase (kind of inhibition), literature [1] | duration of the reversible effect (elevated brain levels of γ-aminobutyric acid), literature [2]
NCC#CC(=O)O [4-aminotetrolic acid] | competitive reversible inhibitor | 
CCCC(CCC)C(=O)O [n-dipropylacetate] | competitively inhibiting | about 2 hours
